# Tests used:
# Format in all cases: cell-based
# PPAR gamma = target: T1, PPAR gamma (Homo sapiens, UniProt P37231); assay: Full-length PPAR transcriptional activation assay (PPRE::Luciferase reporter, HEK293 cells), PPAR gamma; settings: transfected HEK293 cells (PPARγ2 plasmid), species of receptor not given
# T1 construct: expressed in transfected cells; host or cells: HEK293
# T1 sequence (P37231 1-505): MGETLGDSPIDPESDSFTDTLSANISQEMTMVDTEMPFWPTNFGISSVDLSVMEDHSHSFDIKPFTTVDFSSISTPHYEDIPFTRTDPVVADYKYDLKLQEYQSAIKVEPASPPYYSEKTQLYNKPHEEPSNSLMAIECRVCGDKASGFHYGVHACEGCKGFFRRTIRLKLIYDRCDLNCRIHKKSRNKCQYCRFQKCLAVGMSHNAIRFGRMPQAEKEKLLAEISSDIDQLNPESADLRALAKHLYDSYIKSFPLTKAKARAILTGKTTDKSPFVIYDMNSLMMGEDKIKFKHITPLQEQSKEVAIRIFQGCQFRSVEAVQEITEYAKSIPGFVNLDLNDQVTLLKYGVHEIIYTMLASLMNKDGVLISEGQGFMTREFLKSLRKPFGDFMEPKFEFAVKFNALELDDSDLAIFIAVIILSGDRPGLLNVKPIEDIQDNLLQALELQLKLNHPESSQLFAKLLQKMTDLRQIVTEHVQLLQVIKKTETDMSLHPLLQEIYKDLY
# Experimental: (§1) HEK293 cells were seeded the day before transfection into 384-well plates at a cell density of 6,000 cells per well in 40 μl assay medium I (phenol red-free DMEM containing 4% charcoal-dextran stripped FBS, 1% Penicillin-Streptomycin and 1% GlutaMax-1). Then 25 ng of PPRE::Luciferase reporter plasmid, an expression plasmid (25 pg of PPARα, or 40 pg of PPARδ, or 75 pg of PPARγ2), and an appropriate amount of the plasmid pUC19 to bring the total DNA amount to 50 ng was added to 20 μl of phenol-red free DMEM and 150 nL of Fugene 6 and incubated for 30 minutes. The transfection mixtures were then added to the cells and incubated for three hours. 10 μl of test agents in 5% DMSO were then added to the cells and incubated at 37° C. for an additional 18 hours. Luciferase activity was then assayed by adding 25 μl/well of Britelite (Perkin Elmer) according to the manufacturer's protocol and relative light output was measured with an Analyst GT plate reader (Molecular Devices). All experimental points were done in triplicate and the assays were repeated at least 3 times.
# (§2) HEK293 cells were seeded the day before transfection in […] dishes at a density of 9×10^6 cells/dish and incubated at 37° C., 10% CO2 for 16-24 hours. Then, […] of PPRE::Luciferase reporter plasmid, an expression plasmid (7.5 ng of PPARα, or 7.5 ng of PPARδ, or 75 ng of PPARγ2), and an appropriate amount of the plasmid pUC19 to bring the total DNA amount to […] were mixed with 54 μl of Fugene 6 in 2 mls of phenol red-free DMEM and incubated for 30 minutes. Transfection mixtures were then incubated with the cells for 18 hours. Cells were then replated into sterile, white TC treated 384-well assay plates at a cell density of 24×10^3 cells/well in 40 μl of assay medium II (phenol-red free DMEM containing 3% charcoal/dextran-stripped FBS, 1% Penicillin-Streptomycin and 1% GlutaMax-1) and incubated at 37° C. for 6 hours. 10 μl of test agents in 5% DMSO were then added to the cells and incubated at 37° C. for an additional 18 hours. Luciferase activity was then assayed by adding 30 μl/well of Britelite (Perkin Elmer) according to the manufacturer's protocol and relative light output was measured with an Analyst GT plate reader (Molecular Devices). All experimental points were done in triplicate and the assays were repeated 3 times.
# PPAR delta = target: T2, PPAR delta (Homo sapiens, UniProt Q03181); assay: Full-length PPAR transcriptional activation assay (PPRE::Luciferase reporter, HEK293 cells), PPAR delta; settings: transfected HEK293 cells, species of receptor not given
# T2 construct: expressed in transfected cells; host or cells: HEK293
# T2 sequence (Q03181 1-441): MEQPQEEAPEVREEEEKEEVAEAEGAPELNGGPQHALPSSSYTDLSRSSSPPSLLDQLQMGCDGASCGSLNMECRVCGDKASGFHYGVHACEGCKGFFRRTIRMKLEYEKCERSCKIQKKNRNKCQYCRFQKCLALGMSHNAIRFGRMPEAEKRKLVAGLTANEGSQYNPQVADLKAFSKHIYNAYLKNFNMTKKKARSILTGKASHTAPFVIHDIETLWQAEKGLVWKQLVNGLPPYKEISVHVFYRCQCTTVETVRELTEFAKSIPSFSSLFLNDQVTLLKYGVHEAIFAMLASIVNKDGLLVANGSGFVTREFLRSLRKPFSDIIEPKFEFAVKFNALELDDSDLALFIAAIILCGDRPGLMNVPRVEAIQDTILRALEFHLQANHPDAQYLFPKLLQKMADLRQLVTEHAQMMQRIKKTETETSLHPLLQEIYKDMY
# Experimental: as §1, §2
# PPAR alpha = target: T3, PPAR alpha (Homo sapiens, UniProt Q07869); assay: Full-length PPAR transcriptional activation assay (PPRE::Luciferase reporter, HEK293 cells), PPAR alpha; settings: transfected HEK293 cells, species of receptor not given
# T3 construct: expressed in transfected cells; host or cells: HEK293
# T3 sequence (Q07869 1-468): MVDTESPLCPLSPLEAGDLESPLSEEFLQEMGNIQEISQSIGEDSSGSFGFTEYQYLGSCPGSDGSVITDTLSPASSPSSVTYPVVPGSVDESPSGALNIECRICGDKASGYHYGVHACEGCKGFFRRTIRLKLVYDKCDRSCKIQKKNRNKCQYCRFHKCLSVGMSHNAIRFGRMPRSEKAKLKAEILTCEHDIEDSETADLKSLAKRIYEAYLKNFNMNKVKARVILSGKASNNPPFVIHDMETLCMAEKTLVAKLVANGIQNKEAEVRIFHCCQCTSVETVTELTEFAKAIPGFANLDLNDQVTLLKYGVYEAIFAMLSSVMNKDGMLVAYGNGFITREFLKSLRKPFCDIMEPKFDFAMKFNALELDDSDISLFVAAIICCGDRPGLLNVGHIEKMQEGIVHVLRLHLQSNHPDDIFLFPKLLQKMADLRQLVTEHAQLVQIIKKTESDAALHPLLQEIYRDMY
# Experimental: as §1, §2
SMILES,EC50 (PPAR gamma) [nM],EC50 (PPAR delta) [nM],EC50 (PPAR alpha) [nM]
"CCc1cnc(N(CCCC2CCc3ccc(CC(=O)O)cc3O2)Cc2ccc(C(F)(F)F)cc2)nc1 (stereo not drawn) [Example 10, (2-{3-[(5-Ethyl-pyrimidin-2-yl)-(4-trifluoromethyl-benzyl)-amino]-propyl}-chroman-7-yl)-acetic acid]",≤ 1000,≤ 1000,> 1000
"CCc1cnc(N(CCCC2CCc3c(CC(=O)O)cccc3O2)Cc2ccc(C(F)(F)F)cc2)nc1 (stereo not drawn) [Example 11, (2-{3-[(5-Ethyl-pyrimidin-2-yl)-(4-trifluoromethyl-benzyl)-amino]-propyl}-chroman-5-yl)-acetic acid]",≤ 1000,≤ 1000,> 1000
"CCc1cnc(N(CCCC2CCc3ccc(CC(=O)O)cc3O2)Cc2ccc(OC(F)(F)F)cc2)nc1 (stereo not drawn) [Example 12, 2-(2-(3-((5-Ethylpyrimidin-2-yl)(4-(trifluoromethoxy)benzyl)amino)propyl)chroman-7-yl)acetic acid]",≤ 1000,≤ 1000,> 1000
"CCc1cnc(N(CCCC2CCc3c(CC(=O)O)cccc3O2)Cc2ccc(OC(F)(F)F)cc2)nc1 (stereo not drawn) [Example 13, 2-(2-(3-((5-Ethylpyrimidin-2-yl)(4-(trifluoromethoxy)benzyl)amino)propyl)chroman-5-yl)acetic acid]",≤ 1000,≤ 1000,> 1000
"CCc1cnc(N(CCCC2CCc3ccc(CC(=O)O)cc3O2)CCc2ccc(OC(F)(F)F)cc2)nc1 (stereo not drawn) [Example 14, 2-(2-(3-((5-Ethylpyrimidin-2-yl)(4-(trifluoromethoxy)phenethyl)amino)propyl)chroman-7-yl)acetic acid]",≤ 1000,≤ 1000,> 1000
"CCc1cnc(N(CCCC2CCc3c(CC(=O)O)cccc3O2)CCc2ccc(OC(F)(F)F)cc2)nc1 (stereo not drawn) [Example 15, 2-(2-(3-((5-Ethylpyrimidin-2-yl)(4-(trifluoromethoxy)phenethyl)amino)propyl)chroman-5-yl)acetic acid]",≤ 1000,≤ 1000,> 1000
"CCc1cnc(N(CCC2CCc3ccc(CC(=O)O)cc3O2)Cc2ccc(C(F)(F)F)cc2)nc1 (stereo not drawn) [Example 16, 2-(2-(2-((5-ethylpyrimidin-2-yl)(4-(trifluoromethyl)benzyl)amino)ethyl)chroman-7-yl)acetic acid]",≤ 1000,≤ 1000,≤ 1000
"CCc1cnc(N(CCC2CCc3c(CC(=O)O)cccc3O2)Cc2ccc(C(F)(F)F)cc2)nc1 (stereo not drawn) [Example 17, 2-(2-(2-((5-ethylpyrimidin-2-yl)(4-(trifluoromethyl)benzyl)amino)ethyl)chroman-5-yl)acetic acid]",≤ 1000,≤ 1000,≤ 1000
